Assay [1] concerns the target Mu-type opioid receptor (Homo sapiens) (UniProt P35372). Kind of assay: Inhibition of mu opioid receptor at 10 uM by NIMH PDSP.
Assay [2] concerns the target Muscarinic acetylcholine receptor M3 (Homo sapiens) (UniProt P20309). Kind of assay: Inhibition of M3 muscarinic receptor at 10 uM by NIMH PDSP.
Assay [3] deals with T1, 5-hydroxytryptamine receptor 3A (Homo sapiens) (UniProt P46098).
T1 sequence (whole entry): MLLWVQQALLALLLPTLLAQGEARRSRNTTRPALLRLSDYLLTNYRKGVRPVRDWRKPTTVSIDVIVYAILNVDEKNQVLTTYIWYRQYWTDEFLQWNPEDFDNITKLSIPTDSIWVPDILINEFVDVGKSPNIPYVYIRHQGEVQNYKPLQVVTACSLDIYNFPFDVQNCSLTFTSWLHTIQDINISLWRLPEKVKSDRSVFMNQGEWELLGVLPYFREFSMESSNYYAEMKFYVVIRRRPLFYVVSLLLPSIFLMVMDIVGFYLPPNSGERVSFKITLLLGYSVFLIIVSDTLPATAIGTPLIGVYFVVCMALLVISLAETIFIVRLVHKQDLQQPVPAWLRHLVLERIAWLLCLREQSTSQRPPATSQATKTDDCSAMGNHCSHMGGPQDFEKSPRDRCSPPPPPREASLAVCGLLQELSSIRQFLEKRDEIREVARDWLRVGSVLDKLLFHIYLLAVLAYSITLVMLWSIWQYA
Kind of assay: Inhibition of 5-HT3 receptor at 10 uM by NIMH PDSP.

The target in assay [4] is T2, Alpha-2B adrenergic receptor (Homo sapiens) (UniProt P18089).
T2 sequence (whole entry): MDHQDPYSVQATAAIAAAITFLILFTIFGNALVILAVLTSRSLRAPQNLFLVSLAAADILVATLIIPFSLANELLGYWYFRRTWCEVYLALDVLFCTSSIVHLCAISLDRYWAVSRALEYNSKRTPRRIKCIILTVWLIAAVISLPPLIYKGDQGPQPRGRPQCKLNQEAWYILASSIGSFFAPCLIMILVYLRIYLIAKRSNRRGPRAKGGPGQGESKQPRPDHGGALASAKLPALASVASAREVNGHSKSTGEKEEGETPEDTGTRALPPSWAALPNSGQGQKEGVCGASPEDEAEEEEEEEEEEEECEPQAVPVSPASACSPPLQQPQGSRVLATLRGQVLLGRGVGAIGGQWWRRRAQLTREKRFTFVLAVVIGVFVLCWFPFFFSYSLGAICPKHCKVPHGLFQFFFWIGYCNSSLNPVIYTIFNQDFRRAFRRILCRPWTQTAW
The assay is described as follows: Inhibition of alpha-2B adrenergic receptor at 10 uM by NIMH PDSP.

Assay [5] is described as follows: Inhibition of GABAA receptor at 10 uM by NIMH PDSP.
For assay [6], the target named is T3, 5-hydroxytryptamine receptor 2C (Homo sapiens) (UniProt P28335).
T3 sequence (whole entry): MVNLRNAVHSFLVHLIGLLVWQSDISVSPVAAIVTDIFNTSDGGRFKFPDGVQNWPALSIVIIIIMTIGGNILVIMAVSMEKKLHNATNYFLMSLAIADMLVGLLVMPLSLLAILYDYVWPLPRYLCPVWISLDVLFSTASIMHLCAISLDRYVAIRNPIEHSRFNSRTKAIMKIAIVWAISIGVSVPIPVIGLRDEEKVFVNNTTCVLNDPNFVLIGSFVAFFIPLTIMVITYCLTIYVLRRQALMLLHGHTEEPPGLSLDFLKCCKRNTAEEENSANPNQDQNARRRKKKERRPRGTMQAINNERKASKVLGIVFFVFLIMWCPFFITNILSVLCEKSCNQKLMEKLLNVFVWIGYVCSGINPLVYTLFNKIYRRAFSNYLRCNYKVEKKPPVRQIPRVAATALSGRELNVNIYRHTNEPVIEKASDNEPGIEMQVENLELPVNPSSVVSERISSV
The assay is described as follows: Inhibition of 5-HT2C receptor at 10 uM by NIMH PDSP.

In assay [7] the target is Beta-2 adrenergic receptor (Homo sapiens) (UniProt P07550). The assay is described as follows: Inhibition of beta-2 adrenergic receptor at 10 uM by NIMH PDSP.
Chain of Beta-2 adrenergic receptor (Homo sapiens) (P07550 whole entry, looked up): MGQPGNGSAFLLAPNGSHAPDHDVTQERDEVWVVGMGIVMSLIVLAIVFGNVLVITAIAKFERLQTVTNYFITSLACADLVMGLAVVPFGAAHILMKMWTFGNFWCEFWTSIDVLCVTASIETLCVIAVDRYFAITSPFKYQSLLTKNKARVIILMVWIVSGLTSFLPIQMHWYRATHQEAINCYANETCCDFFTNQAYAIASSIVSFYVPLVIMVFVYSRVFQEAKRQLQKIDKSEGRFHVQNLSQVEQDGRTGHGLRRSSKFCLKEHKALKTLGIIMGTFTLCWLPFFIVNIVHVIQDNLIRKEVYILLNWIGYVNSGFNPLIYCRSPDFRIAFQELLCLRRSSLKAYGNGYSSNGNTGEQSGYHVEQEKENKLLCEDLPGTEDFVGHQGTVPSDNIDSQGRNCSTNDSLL
Assay [8] addresses T4, Muscarinic acetylcholine receptor M1 (Homo sapiens) (UniProt P11229).
T4 sequence (whole entry): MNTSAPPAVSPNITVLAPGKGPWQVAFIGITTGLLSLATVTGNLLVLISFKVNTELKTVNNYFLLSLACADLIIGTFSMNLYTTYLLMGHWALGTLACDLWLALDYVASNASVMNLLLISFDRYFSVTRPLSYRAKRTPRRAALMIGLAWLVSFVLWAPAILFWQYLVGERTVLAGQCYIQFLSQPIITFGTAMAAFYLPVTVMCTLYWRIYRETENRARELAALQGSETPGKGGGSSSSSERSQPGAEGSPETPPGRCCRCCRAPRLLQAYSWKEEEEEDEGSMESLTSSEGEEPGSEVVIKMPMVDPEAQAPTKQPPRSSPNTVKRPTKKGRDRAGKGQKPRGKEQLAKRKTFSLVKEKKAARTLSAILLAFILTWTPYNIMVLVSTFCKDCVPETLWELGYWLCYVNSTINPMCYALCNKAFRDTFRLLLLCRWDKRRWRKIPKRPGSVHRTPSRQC
The assay is described as follows: Inhibition of M1 muscarinic receptor at 10 uM by NIMH PDSP.

For assay [9], the target named is 5-hydroxytryptamine receptor 2A (Homo sapiens) (UniProt P28223). Kind of assay: Inhibition of 5-HT2A receptor at 10 uM by NIMH PDSP.
Chain of 5-hydroxytryptamine receptor 2A (Homo sapiens) (P28223 whole entry): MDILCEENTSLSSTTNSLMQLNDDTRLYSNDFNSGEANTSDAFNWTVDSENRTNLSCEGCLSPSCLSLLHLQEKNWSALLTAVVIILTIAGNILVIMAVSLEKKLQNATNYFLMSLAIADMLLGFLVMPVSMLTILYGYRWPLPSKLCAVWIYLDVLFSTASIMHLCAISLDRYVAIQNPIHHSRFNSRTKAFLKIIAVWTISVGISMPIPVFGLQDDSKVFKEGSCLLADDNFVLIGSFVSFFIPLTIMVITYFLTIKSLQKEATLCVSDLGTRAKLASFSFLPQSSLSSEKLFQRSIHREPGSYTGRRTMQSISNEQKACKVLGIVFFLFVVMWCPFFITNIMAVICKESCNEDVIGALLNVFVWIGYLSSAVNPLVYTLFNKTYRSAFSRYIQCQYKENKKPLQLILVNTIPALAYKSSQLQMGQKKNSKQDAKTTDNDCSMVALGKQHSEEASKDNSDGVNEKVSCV
Assay [10] deals with 5-hydroxytryptamine receptor 1E (Homo sapiens) (UniProt P28566). Kind of assay: Inhibition of 5-HT1E receptor at 10 uM by NIMH PDSP.
Chain of 5-hydroxytryptamine receptor 1E (Homo sapiens) (P28566 whole entry): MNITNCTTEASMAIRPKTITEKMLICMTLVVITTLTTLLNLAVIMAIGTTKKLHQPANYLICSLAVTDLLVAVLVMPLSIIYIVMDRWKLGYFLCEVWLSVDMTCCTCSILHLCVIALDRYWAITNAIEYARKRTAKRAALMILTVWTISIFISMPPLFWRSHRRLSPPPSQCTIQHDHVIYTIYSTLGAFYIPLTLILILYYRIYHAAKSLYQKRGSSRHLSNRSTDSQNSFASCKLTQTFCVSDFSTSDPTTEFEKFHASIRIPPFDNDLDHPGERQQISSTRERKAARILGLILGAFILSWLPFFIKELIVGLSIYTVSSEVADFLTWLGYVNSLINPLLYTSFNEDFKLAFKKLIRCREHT
For assay [11], the target named is T5, D(4) dopamine receptor (Homo sapiens) (UniProt P21917).
T5 sequence (whole entry): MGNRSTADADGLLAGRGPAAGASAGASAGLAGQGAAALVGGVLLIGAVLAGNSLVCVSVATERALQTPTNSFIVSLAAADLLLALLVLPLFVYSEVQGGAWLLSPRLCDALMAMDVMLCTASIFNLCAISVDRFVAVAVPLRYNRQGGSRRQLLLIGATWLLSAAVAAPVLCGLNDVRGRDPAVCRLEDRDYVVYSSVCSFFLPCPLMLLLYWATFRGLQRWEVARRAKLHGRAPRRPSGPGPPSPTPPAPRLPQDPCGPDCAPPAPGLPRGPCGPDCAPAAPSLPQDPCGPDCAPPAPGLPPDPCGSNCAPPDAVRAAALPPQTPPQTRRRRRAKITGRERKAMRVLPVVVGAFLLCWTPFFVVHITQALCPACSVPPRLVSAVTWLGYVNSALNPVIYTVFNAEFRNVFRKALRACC
The assay is described as follows: Inhibition of D4 dopamine receptor at 10 uM by NIMH PDSP.

Assay [12] in a line: Displacement of [3H]DTG from sigma 2 receptor in rat liver homogenates in presence of sigma-1 receptor blocker (+)-pentazocine after 120 mins by liquid scintillation counting. It is filed as tissue-based. For orientation: In a radioligand displacement assay an active substance lowers the binding of a labelled ligand.

The results in this text go back to ChEMBL document CHEMBL1821607, “N-Arylalkyl-2-azaadamantanes as cage-expanded polycarbocyclic sigma (σ) receptor ligands” (Bioorg Med Chem Lett, 2011).

Chain of Muscarinic acetylcholine receptor M3 (Homo sapiens) (P20309 whole entry, looked up): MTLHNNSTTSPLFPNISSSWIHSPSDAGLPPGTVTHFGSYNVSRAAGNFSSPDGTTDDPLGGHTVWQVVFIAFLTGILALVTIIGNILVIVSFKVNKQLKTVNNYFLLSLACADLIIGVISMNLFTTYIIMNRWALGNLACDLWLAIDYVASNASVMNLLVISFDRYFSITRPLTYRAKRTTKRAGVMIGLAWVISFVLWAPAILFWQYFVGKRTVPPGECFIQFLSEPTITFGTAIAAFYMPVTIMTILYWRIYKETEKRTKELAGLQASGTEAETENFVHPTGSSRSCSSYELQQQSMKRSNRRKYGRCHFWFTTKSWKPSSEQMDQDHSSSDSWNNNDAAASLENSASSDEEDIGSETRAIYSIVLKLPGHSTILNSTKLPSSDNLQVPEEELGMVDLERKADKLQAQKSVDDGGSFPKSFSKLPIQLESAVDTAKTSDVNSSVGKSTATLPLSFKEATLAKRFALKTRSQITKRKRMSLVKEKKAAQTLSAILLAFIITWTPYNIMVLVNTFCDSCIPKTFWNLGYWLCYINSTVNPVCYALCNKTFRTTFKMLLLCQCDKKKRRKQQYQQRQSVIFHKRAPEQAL
Chain of Mu-type opioid receptor (Homo sapiens) (P35372 whole entry): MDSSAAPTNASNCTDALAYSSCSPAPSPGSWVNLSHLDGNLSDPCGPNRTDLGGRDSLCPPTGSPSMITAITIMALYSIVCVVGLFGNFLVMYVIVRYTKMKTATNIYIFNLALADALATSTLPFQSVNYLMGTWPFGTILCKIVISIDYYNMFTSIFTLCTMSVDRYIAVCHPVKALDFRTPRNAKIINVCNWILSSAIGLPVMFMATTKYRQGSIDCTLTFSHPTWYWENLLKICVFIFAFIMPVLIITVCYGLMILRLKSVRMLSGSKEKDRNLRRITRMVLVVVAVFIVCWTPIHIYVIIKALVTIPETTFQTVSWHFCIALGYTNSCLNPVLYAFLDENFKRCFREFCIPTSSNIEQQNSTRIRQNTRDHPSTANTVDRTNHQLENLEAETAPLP

The term inhibition denotes how much of the control response was suppressed. A lower inhibition goes with a response near the control. As a reminder, the Ki is a dissociation constant, usually derived from enzyme kinetics or from competition with a known ligand. As for `OC12CC3CC(CC(C3)N1Cc1cccc(F)c1)C2` (racemic), the inhibition in assay [1], in assay [2], in [3], in [4], in assay [5] and in assay [6] was below 50% in each case. Further, the inhibition in assay [7], in [8], in [9], in [10] and in assay [11] was below 50% each time. For the same molecule, the Ki in [12] is 705 nM.
As to `c1ccc(CN2C3CC4CC(C3)CC2C4)cc1`, the inhibition in assay [1], in assay [2], in assay [3], in assay [4], in [5] and in assay [6] was below 50% in each case. In addition, the inhibition in assay [7], in assay [8], in assay [9], in assay [10] and in assay [11] was below 50% in each case. The Ki in [12] turned out to be 95 nM.
`Fc1cccc(CN2C3CC4CC(C3)CC2C4)c1`: the inhibition in assay [1], in assay [2], in [3], in assay [4], in assay [5] and in [6] was below 50% in each case. Moreover, the inhibition in assay [7], in assay [8], in assay [9], in [10] and in assay [11] was below 50% each time. The inhibition constant Ki in assay [12] is 132 nM.
Take `OC12CC3CC(CC(C3)N1Cc1ccccc1)C2` (racemic): the inhibition in assay [1], in [2], in [3], in assay [5], in assay [6] and in assay [7] was below 50% in each case. Besides, the inhibition in [8], in assay [9], in [10] and in assay [11] was below 50% each time. Besides, in [12], the Ki was 1020 nM.
